In the supplement of paper PMC10307832:

Experiments:
Test in all cases: relative viability (nuclei count vs DMSO), 5 days (fraction); higher = more cells survive
XMD8-85 + Pemetrexed = compound: CN1CCN(CC1)C2=CC(=C(C=C2)NC3=NC=C4C(=N3)N(C5=CC=CC=C5C(=O)N4C)C)OC [XMD8-85] + Nc1nc2[nH]cc(CCc3ccc(C(=O)N[C@@H](CCC(=O)O)C(=O)O)cc3)c2c(=O)[nH]1 [Pemetrexed] (partner 0.2 µM)
Procedure, shortened: (§1)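 Lung cancer cell lines in 1536-well plates got either a single drug or a fixed anchor-drug dose together with five library-drug doses (not always all listed) in √10 steps, by pin tool, on the day after seeding. Nuclei were counted after 5 days, and relative viability is the treated-to-vehicle ratio of nuclei counts. Values are medians of duplicate plates.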

XMD8-85 + Olaparib = compound: CN1CCN(CC1)C2=CC(=C(C=C2)NC3=NC=C4C(=N3)N(C5=CC=CC=C5C(=O)N4C)C)OC [XMD8-85] + O=C(c1cc(Cc2n[nH]c(=O)c3ccccc23)ccc1F)N1CCN(C(=O)C2CC2)CC1 [Olaparib] (partner 8 µM)
Procedure, shortened: as §1

4EGI-1 + Vorinostat = compound: O=C(O)C(Cc1ccccc1[N+](=O)[O-])=NNc1nc(-c2ccc(Cl)c(Cl)c2)cs1 (mixture of isomers) [4EGI-1] + O=C(CCCCCCC(=O)Nc1ccccc1)NO [Vorinostat] (partner 1 µM)
Procedure, shortened: as §1

4EGI-1 + Pictilisib = compound: O=C(O)C(Cc1ccccc1[N+](=O)[O-])=NNc1nc(-c2ccc(Cl)c(Cl)c2)cs1 (mixture of isomers) [4EGI-1] + CS(=O)(=O)N1CCN(Cc2cc3nc(-c4cccc5[nH]ncc45)nc(N4CCOCC4)c3s2)CC1 [Pictilisib] (partner 1 µM)
Procedure, shortened: as §1

Cell Line | relative viability (XMD8-85 + Pemetrexed; first compound 0.08 µM) | relative viability (XMD8-85 + Pemetrexed; first compound 0.253 µM) | relative viability (XMD8-85 + Pemetrexed; first compound 0.8 µM) | relative viability (XMD8-85 + Pemetrexed; first compound 2.53 µM) | relative viability (XMD8-85 + Pemetrexed; first compound 8 µM) | relative viability (XMD8-85 + Olaparib; first compound 0.08 µM) | relative viability (XMD8-85 + Olaparib; first compound 0.253 µM) | relative viability (XMD8-85 + Olaparib; first compound 0.8 µM) | relative viability (XMD8-85 + Olaparib; first compound 2.53 µM) | relative viability (XMD8-85 + Olaparib; first compound 8 µM) | relative viability (4EGI-1 + Vorinostat; first compound 0.5 µM) | relative viability (4EGI-1 + Vorinostat; first compound 5 µM) | relative viability (4EGI-1 + Vorinostat; first compound 15.81 µM) | relative viability (4EGI-1 + Vorinostat; first compound 50 µM) | relative viability (4EGI-1 + Pictilisib; first compound 0.5 µM) | relative viability (4EGI-1 + Pictilisib; first compound 1.581 µM) | relative viability (4EGI-1 + Pictilisib; first compound 5 µM) | relative viability (4EGI-1 + Pictilisib; first compound 50 µM) | relative viability (4EGI-1 + Vorinostat; first compound 1.581 µM) | relative viability (4EGI-1 + Pictilisib; first compound 15.81 µM)
PC-14 | 0.114 | 0.144 | 0.126 | 0.116 | 0.101 | 0.253 | 0.213 | 0.229 | 0.237 | 0.14 | 0.865 | 0.824 | 0.0883 | 0.0654 | 0.879 | 0.464 | 0.602 | 0.704 | – | –
NCI-H647 | 0.172 | 0.16 | 0.18 | 0.151 | 0.116 | 0.573 | 0.378 | 0.605 | 0.408 | 0.118 | 0.837 | 0.689 | 0.477 | 0.0731 | 0.437 | – | 0.432 | 0.27 | 0.53 | 0.401
201T | 0.329 | 0.329 | 0.368 | 0.325 | 0.288 | 0.889 | 0.811 | 0.886 | 0.866 | 0.73 | 1.11 | 1.07 | 0.852 | 0.559 | 0.702 | 0.655 | 0.707 | 0.603 | 1.03 | 0.638
PC-3 [JPC-3] | 1.21 | 0.928 | 1.1 | 1.27 | 0.452 | 1.11 | 1.22 | 1.25 | 1.16 | 0.978 | 0.753 | 0.867 | 0.418 | 0.307 | 0.772 | 0.826 | 0.706 | 0.458 | – | –
HCC-827 | 0.284 | 0.251 | 0.266 | 0.254 | 0.301 | 0.67 | 0.714 | 0.684 | 0.739 | 0.701 | 0.785 | 0.902 | – | 0.274 | 1.03 | 0.993 | 0.958 | 0.66 | 0.698 | 0.298
NCI-H1395 | 0.768 | 0.744 | 0.854 | 0.976 | 0.594 | 0.421 | 0.426 | 0.43 | 0.474 | 0.452 | 0.833 | 0.858 | 0.669 | 0.397 | 0.638 | – | 0.735 | 0.346 | – | 0.567
EPLC-272H | 0.279 | 0.318 | 0.314 | 0.223 | 0.36 | 0.853 | 0.579 | 0.747 | 0.458 | 0.387 | 0.563 | 0.337 | 0.295 | 0.12 | 0.338 | 0.306 | 0.369 | 0.205 | 0.493 | 0.293
NCI-H2087 | 0.654 | 0.697 | 0.692 | 0.731 | 0.659 | 0.527 | 0.688 | 0.7 | – | 0.533 | 0.694 | 0.724 | 0.995 | 0.343 | 1.02 | 0.813 | 0.888 | 0.386 | 0.958 | 0.626
HARA | 0.26 | 0.227 | 0.307 | 0.295 | 0.229 | 1.28 | 0.581 | 0.698 | 0.387 | 0.399 | 0.545 | 0.525 | 0.47 | 0.127 | 0.48 | 0.428 | 0.46 | 0.266 | 0.429 | 0.375
UMC-11 | 0.818 | 0.745 | 0.82 | 0.707 | 0.391 | 0.475 | 0.358 | 0.389 | 0.325 | 0.231 | 0.448 | 0.449 | 0.446 | 0.296 | 1.01 | 0.989 | 0.896 | 0.587 | 0.408 | 0.87
NCI-H2170 | 0.258 | 0.28 | 0.264 | 0.269 | 0.286 | 0.51 | 0.627 | 0.599 | 0.601 | 0.532 | 0.936 | 0.842 | 0.699 | 0.585 | 0.316 | 0.306 | 0.319 | 0.22 | 0.749 | 0.253
BEN | 0.811 | 0.771 | 0.696 | 0.735 | 0.474 | 0.952 | 1.05 | 0.947 | 0.887 | 0.613 | 0.63 | 0.589 | 0.557 | 0.442 | 0.594 | 0.656 | 0.667 | 0.46 | 0.599 | 0.51
EKVX | 0.276 | 0.347 | 0.382 | – | 0.381 | 0.756 | 0.83 | 0.998 | 0.898 | 0.901 | 0.852 | 0.759 | 0.309 | 0.203 | 0.443 | 0.371 | 0.442 | 0.405 | 0.746 | 0.262
NCI-H1755 | 0.405 | 0.441 | 0.444 | 0.427 | 0.444 | 0.974 | 0.906 | 0.862 | 0.85 | 0.899 | 0.818 | 0.891 | 0.853 | 0.626 | 0.604 | 0.477 | 0.459 | 0.235 | 0.749 | 0.398
NCI-H2126 | 0.705 | 0.758 | 0.693 | 0.707 | 0.623 | 0.958 | 0.897 | 0.954 | 0.889 | 0.94 | 0.756 | 0.819 | 0.539 | 0.646 | 0.525 | 0.455 | 0.581 | 0.42 | 0.773 | 0.445
